The record followed here is patent publication US4690919A, “Benzoxazinorifamycin derivative, process for preparing the same and antibacterial agent containing the same” (Kanegafuchi Kagaku Kogyo Kabushiki Kaisha, priority 1985, dated 1987).

Data set [1] concerns Staphylococcus aureus IFO 12732. Description: Antibacterial activity (MIC), standard method of Japan Society of Chemotherapy. It counts as cell-based. The text has this: (§1) The results obtained from the typical compounds are shown in Table 2 as the minimum inhibitory concentration (MIC, μg/ml). […] In Table 2, Test compound No. corresponds to derivative No. in Table 1.
Data set [2] concerns Escherichia coli IFO 12734. Described as above. It counts as cell-based. To be noted: IFO12734, read-out: minimum inhibitory concentration (MIC).
Description: as §1

Data set [3] has as its system Micrococcus luteus IFO 12708. The data set is described as above. It counts as cell-based.
Description: as §1

The test system of data set [4] is Mycobacterium smegmatis ATCC 607. The data set is described as above. It counts as cell-based. As to conditions: Mycolicibacterium smegmatis.
Description: as §1

The subject of data set [5] is Bacillus subtilis IFO 3134. Described as above. It counts as cell-based.
Description: as §1

In data set [6] the test system is Klebsiella pneumoniae IFO 3512. The data set is described as above. It counts as cell-based.
Description: as §1

Data set [7] can be described thus: Concentration in serum after oral administration to rats. To be noted: rat, 20 mg/kg.
The mark [8] stands for this setting: IFO12732, Staphylococcus aureus IFO 12732, read-out: minimum inhibitory concentration (MIC).
[9] abbreviates: IFO12708, Micrococcus luteus IFO 12708, read-out: minimum inhibitory concentration (MIC).
The mark [10] stands for this setting: ATCC607, Mycobacterium smegmatis ATCC 607, read-out: minimum inhibitory concentration (MIC).
[11] abbreviates: IFO3134, Bacillus subtilis IFO 3134, read-out: minimum inhibitory concentration (MIC).
Setting [12] is: IFO3512, Klebsiella pneumoniae IFO 3512, read-out: minimum inhibitory concentration (MIC).

Each structure is given as a SMILES string. In brackets after ≈: the same amount, converted by molar mass. Like-named read-outs stand apart in the source and are kept apart here. Bounds are passed on as bounds.

For `CCN(CC)c1ccc2nc3c4c5c6c(C)c(O)c4c(=O)c(c-3oc2c1)NC(=O)C(C)=CC=CC(C)C(O)C(C)C(O)C(C)C(OC(C)=O)C(C)C(OC)C=COC(C)(O6)C5=O` (stereo not drawn) [compound 3], the MIC in data set [1] (setting [8]) was at most 0.02 µg/mL; in data set [2], 2.5 µg/mL (≈ 2.92 µM); in data set [3] (setting [9]), at most 0.02 µg/mL; in data set [4] (setting [10]) it was 1.25 µg/mL (≈ 1.46 µM); in data set [5] (setting [11]) it was at most 0.02 µg/mL; in data set [6] (setting [12]) it was 5 µg/mL (≈ 5.84 µM). The concentration at 1 h in data set [7] turned out to be 1800 ng/mL. Moreover, the concentration at 3 h in data set [7] came to 3300 ng/mL. The same compound displayed a concentration at 5 h in data set [7] of 1300 ng/mL.

In data set [7], `CCC1CCCCN1c1ccc2nc3c4c5c6c(C)c(O)c4c(=O)c(c-3oc2c1)NC(=O)C(C)=CC=CC(C)C(O)C(C)C(O)C(C)C(OC(C)=O)C(C)C(OC)C=COC(C)(O6)C5=O` (stereo not drawn) [compound 25] displayed a concentration at 1 h of 2400 ng/mL, a concentration at 3 h of 6600 ng/mL and a concentration at 5 h of 3500 ng/mL.

As for `COC1C=COC2(C)Oc3c(C)c(O)c4c(=O)c(c5oc6cc(N7CCSCC7)ccc6nc-5c4c3C2=O)NC(=O)C(C)=CC=CC(C)C(O)C(C)C(O)C(C)C(OC(C)=O)C1C` (stereo not drawn) [compound 45], the MIC is at most 0.02 µg/mL in data set [1] (setting [8]); 2.5 µg/mL (≈ 2.82 µM) in data set [2]; at most 0.02 µg/mL in data set [3] (setting [9]); 1.25 µg/mL (≈ 1.41 µM) in data set [4] (setting [10]); 0.04 µg/mL (≈ 0.0451 µM) in data set [5] (setting [11]); 10 µg/mL (≈ 11.3 µM) in data set [6] (setting [12]).

On to `COC1C=COC2(C)Oc3c(C)c(O)c4c(=O)c(c5oc6cc(N7CC=CCC7)ccc6nc-5c4c3C2=O)NC(=O)C(C)=CC=CC(C)C(O)C(C)C(O)C(C)C(OC(C)=O)C1C` (stereo not drawn) [compound 37], for which the MIC in data set [1] (setting [8]) was 0.08 µg/mL (≈ 0.0924 µM); in data set [2], 2.5 µg/mL (≈ 2.89 µM); in data set [3] (setting [9]), at most 0.02 µg/mL; in data set [4] (setting [10]) it was 1.25 µg/mL (≈ 1.44 µM); in data set [5] (setting [11]), at most 0.02 µg/mL; in data set [6] (setting [12]), above 10 µg/mL.

Turning to `COC1C=COC2(C)Oc3c(C)c(O)c4c(=O)c(c5oc6cc(N7CCCC(C)(C)C7)ccc6nc-5c4c3C2=O)NC(=O)C(C)=CC=CC(C)C(O)C(C)C(O)C(C)C(OC(C)=O)C1C` (stereo not drawn) [compound 27], the MIC in data set [1] (setting [8]) was at most 0.02 µg/mL; in data set [2], above 10 µg/mL; in data set [3] (setting [9]), at most 0.02 µg/mL; in data set [4] (setting [10]), 1.25 µg/mL (≈ 1.4 µM); in data set [5] (setting [11]), at most 0.02 µg/mL; in data set [6] (setting [12]), above 10 µg/mL. Moreover, in data set [7], the concentration at 1 h amounted to 1800 ng/mL. This compound also had a concentration at 3 h in data set [7] of 6400 ng/mL. This compound also showed a concentration at 5 h in data set [7] of 1700 ng/mL.

Turning to `CO[C@H]1/C=C/O[C@@]2(C)Oc3c(C)c(O)c4c(O)c(c(/C=N/N5CCN(C)CC5)c(O)c4c3C2=O)NC(=O)/C(C)=C\C=C\[C@H](C)[C@H](O)[C@@H](C)[C@@H](O)[C@@H](C)[C@H](OC(C)=O)[C@@H]1C` [Rifampicin, reference compound], the MIC in data set [1] (Staphylococcus aureus, IFO12732, read-out: minimum inhibitory concentration (MIC)) was at most 0.02 µg/mL; in data set [2] it was 10 µg/mL (≈ 12.2 µM); in data set [3] (Micrococcus luteus, IFO12708, read-out: minimum inhibitory concentration (MIC)) it was at most 0.02 µg/mL; in data set [4] (ATCC607, read-out: minimum inhibitory concentration (MIC)), 10 µg/mL (≈ 12.2 µM); in data set [5] (Bacillus subtilis, IFO3134, read-out: minimum inhibitory concentration (MIC)), 0.04 µg/mL (≈ 0.0486 µM); in data set [6] (Klebsiella pneumoniae, IFO3512, read-out: minimum inhibitory concentration (MIC)), 5 µg/mL (≈ 6.08 µM).

For `CCN(C)c1ccc2nc3c4c5c6c(C)c(O)c4c(=O)c(c-3oc2c1)NC(=O)C(C)=CC=CC(C)C(O)C(C)C(O)C(C)C(OC(C)=O)C(C)C(OC)C=COC(C)(O6)C5=O` (stereo not drawn) [compound 2], the MIC was at most 0.02 µg/mL in data set [1] (setting [8]); 1.25 µg/mL (≈ 1.48 µM) in data set [2]; at most 0.02 µg/mL in data set [3] (setting [9]); 1.25 µg/mL (≈ 1.48 µM) in data set [4] (setting [10]); 0.04 µg/mL (≈ 0.0475 µM) in data set [5] (setting [11]); 2.5 µg/mL (≈ 2.97 µM) in data set [6] (setting [12]). The same compound returned a concentration at 1 h in data set [7] of 3000 ng/mL. In data set [7], this compound had a concentration at 3 h of 5400 ng/mL. Moreover, in data set [7], the concentration at 5 h amounted to 3000 ng/mL.

Consider `COC(CN(C)c1ccc2nc3c4c5c6c(C)c(O)c4c(=O)c(c-3oc2c1)NC(=O)C(C)=CC=CC(C)C(O)C(C)C(O)C(C)C(OC(C)=O)C(C)C(OC)C=COC(C)(O6)C5=O)OC` (stereo not drawn) [compound 11], for which the MIC is at most 0.02 µg/mL in data set [1] (setting [8]); above 10 µg/mL in data set [2]; at most 0.02 µg/mL in data set [3] (setting [9]); 2.5 µg/mL (≈ 2.77 µM) in data set [4] (setting [10]); at most 0.02 µg/mL in data set [5] (setting [11]); 5 µg/mL (≈ 5.54 µM) in data set [6] (setting [12]). In data set [7], the concentration at 1 h was 2900 ng/mL. In addition, in data set [7], the concentration at 3 h turned out to be 3400 ng/mL. The concentration at 5 h in data set [7] turned out to be 1000 ng/mL.

Consider `COC1C=COC2(C)Oc3c(C)c(O)c4c(=O)c(c5oc6cc(N7CCC7)ccc6nc-5c4c3C2=O)NC(=O)C(C)=CC=CC(C)C(O)C(C)C(O)C(C)C(OC(C)=O)C1C` (stereo not drawn) [compound 17], for which the MIC in data set [1] (setting [8]) was at most 0.02 µg/mL; in data set [2] it was 2.5 µg/mL (≈ 2.98 µM); in data set [3] (setting [9]) it was at most 0.02 µg/mL; in data set [4] (setting [10]), 0.63 µg/mL (≈ 0.75 µM); in data set [5] (setting [11]), at most 0.02 µg/mL; in data set [6] (setting [12]) it was 2.5 µg/mL (≈ 2.98 µM). Moreover, the concentration at 1 h in data set [7] worked out at 4100 ng/mL. Further, the concentration at 3 h in data set [7] was 3700 ng/mL. The concentration at 5 h in data set [7] is 2500 ng/mL.

`COC1C=COC2(C)Oc3c(C)c(O)c4c(=O)c(c5oc6cc(N7CCCCC7)ccc6nc-5c4c3C2=O)NC(=O)C(C)=CC=CC(C)C(O)C(C)C(O)C(C)C(O)C1C` (stereo not drawn) [compound 50]: in data set [7], the concentration at 1 h was 700 ng/mL, the concentration at 3 h is 2400 ng/mL and the concentration at 5 h is 2800 ng/mL.

As to `COC1C=COC2(C)Oc3c(C)c(O)c4c(=O)c(c5oc6cc(N7CCC(C)CC7)ccc6nc-5c4c3C2=O)NC(=O)C(C)=CC=CC(C)C(O)C(C)C(O)C(C)C(OC(C)=O)C1C` (stereo not drawn) [compound 24], the MIC is at most 0.02 µg/mL in data set [1] (setting [8]); above 10 µg/mL in data set [2]; at most 0.02 µg/mL in data set [3] (setting [9]); 1.25 µg/mL (≈ 1.42 µM) in data set [4] (setting [10]); at most 0.02 µg/mL in data set [5] (setting [11]); above 10 µg/mL in data set [6] (setting [12]).

For `CCN(CC)C(=O)C1CCCN(c2ccc3nc4c5c6c7c(C)c(O)c5c(=O)c(c-4oc3c2)NC(=O)C(C)=CC=CC(C)C(O)C(C)C(O)C(C)C(OC(C)=O)C(C)C(OC)C=COC(C)(O7)C6=O)C1` (stereo not drawn) [compound 31], the MIC in data set [1] (setting [8]) was at most 0.02 µg/mL; in data set [2], 5 µg/mL (≈ 5.17 µM); in data set [3] (setting [9]), at most 0.02 µg/mL; in data set [4] (setting [10]) it was 1.25 µg/mL (≈ 1.29 µM); in data set [5] (setting [11]), at most 0.02 µg/mL; in data set [6] (setting [12]), above 10 µg/mL.

Turning to `COC1C=COC2(C)Oc3c(C)c(O)c4c(=O)c(c5oc6cc(N(C)C7CCCCC7)ccc6nc-5c4c3C2=O)NC(=O)C(C)=CC=CC(C)C(O)C(C)C(O)C(C)C(OC(C)=O)C1C` (stereo not drawn) [compound 12], the MIC in data set [1] (setting [8]) was at most 0.02 µg/mL; in data set [2] it was above 10 µg/mL; in data set [3] (setting [9]), at most 0.02 µg/mL; in data set [4] (setting [10]), 1.25 µg/mL (≈ 1.4 µM); in data set [5] (setting [11]), at most 0.02 µg/mL; in data set [6] (setting [12]), above 10 µg/mL.

On to `COC1C=COC2(C)Oc3c(C)c(O)c4c(=O)c(c5oc6cc(N7CCCC7)cc(O)c6nc-5c4c3C2=O)NC(=O)C(C)=CC=CC(C)C(O)C(C)C(O)C(C)C(OC(C)=O)C1C` (stereo not drawn) [compound 46], for which the MIC was at most 0.02 µg/mL in data set [1] (setting [8]); above 10 µg/mL in data set [2]; at most 0.02 µg/mL in data set [3] (setting [9]); 1.25 µg/mL (≈ 1.44 µM) in data set [4] (setting [10]); at most 0.02 µg/mL in data set [5] (setting [11]); above 10 µg/mL in data set [6] (setting [12]).

In the case of `COC1C=COC2(C)Oc3c(C)c(O)c4c(=O)c(c5oc6cc(N7CCN(C)CC7)ccc6nc-5c4c3C2=O)NC(=O)C(C)=CC=CC(C)C(O)C(C)C(O)C(C)C(OC(C)=O)C1C` (stereo not drawn) [compound 39], the MIC in data set [1] (setting [8]) was 0.04 µg/mL (≈ 0.0453 µM); in data set [2] it was 0.63 µg/mL (≈ 0.713 µM); in data set [3] (setting [9]), at most 0.02 µg/mL; in data set [4] (setting [10]) it was 1.25 µg/mL (≈ 1.42 µM); in data set [5] (setting [11]), 0.04 µg/mL (≈ 0.0453 µM); in data set [6] (setting [12]), 1.25 µg/mL (≈ 1.42 µM).
